Results published in PubChem BioAssay (NCI).
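96-well plates; 48 h exposure; 5 concentrations. Endpoints by linear interpolation between flanking doses. Not reached: highest tested concentration assigned. The concentration for full growth arrest is given as TGI.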

How the values were obtained:
Test in all cases: growth of human tumour cells (NCI), 48 h
A498 renal = test system: A498 renal
M14 melanoma = test system: M14 melanoma
EKVX NSCLC = test system: EKVX NSCLC
HOP-62 NSCLC = test system: HOP-62 NSCLC
SK-OV-3 ovarian = test system: SK-OV-3 ovarian
DLD-1 colon = test system: DLD-1 colon
U251 CNS = test system: U251 CNS
OVCAR-8 ovarian = test system: OVCAR-8 ovarian
HT29 colon = test system: HT29 colon
SNB-19 CNS = test system: SNB-19 CNS
NCI-H460 lung = test system: NCI-H460 lung
MALME-3M melanoma = test system: MALME-3M melanoma
SF-295 CNS = test system: SF-295 CNS
UO-31 renal = test system: UO-31 renal
SN12C renal = test system: SN12C renal
TK-10 renal = test system: TK-10 renal
M19-MEL melanoma = test system: M19-MEL melanoma
SW-620 colon = test system: SW-620 colon
SK-MEL-5 melanoma = test system: SK-MEL-5 melanoma
ACHN renal = test system: ACHN renal
HCT-116 colon = test system: HCT-116 colon
COLO 205 colon = test system: COLO 205 colon
CAKI-1 renal = test system: CAKI-1 renal
SNB-78 CNS = test system: SNB-78 CNS
HCT-15 colon = test system: HCT-15 colon
NCI-H23 lung = test system: NCI-H23 lung
HOP-92 NSCLC = test system: HOP-92 NSCLC
DMS 114 small cell lung = test system: DMS 114 small cell lung
SF-539 CNS = test system: SF-539 CNS
KM20L2 colon = test system: KM20L2 colon
SF-268 CNS = test system: SF-268 CNS
SNB-75 CNS = test system: SNB-75 CNS
LXFL 529 NSCLC = test system: LXFL 529 NSCLC
LOX IMVI melanoma = test system: LOX IMVI melanoma
NCI-H522 lung = test system: NCI-H522 lung
SK-MEL-2 melanoma = test system: SK-MEL-2 melanoma
SK-MEL-28 melanoma = test system: SK-MEL-28 melanoma
HOP-18 NSCLC = test system: HOP-18 NSCLC
K-562 leukemia = test system: K-562 leukemia
NCI-H226 lung = test system: NCI-H226 lung
MOLT-4 leukemia = test system: MOLT-4 leukemia
UACC-62 melanoma = test system: UACC-62 melanoma
IGROV1 ovarian = test system: IGROV1 ovarian
RXF-631 renal = test system: RXF-631 renal
RPMI-8226 leukemia = test system: RPMI-8226 leukemia
HL-60(TB) leukemia = test system: HL-60(TB) leukemia
OVCAR-3 ovarian = test system: OVCAR-3 ovarian
DMS 273 small cell lung = test system: DMS 273 small cell lung
CCRF-CEM leukemia = test system: CCRF-CEM leukemia
UACC-257 melanoma = test system: UACC-257 melanoma
HCC-2998 colon = test system: HCC-2998 colon
A549 NSCLC = test system: A549 NSCLC
OVCAR-5 ovarian = test system: OVCAR-5 ovarian
RXF 393 renal = test system: RXF 393 renal
XF 498 CNS = test system: XF 498 CNS
786-0 renal = test system: 786-0 renal
SR leukemia = test system: SR leukemia
KM12 colon = test system: KM12 colon
OVCAR-4 ovarian = test system: OVCAR-4 ovarian

Compound `COc1ccc(/C(Cl)=C(\C=O)c2ccc(F)cc2)cc1OC` has a TGI (A498 renal) of 54.8 µM, a TGI (M14 melanoma) of 47.9 µM and a TGI (EKVX NSCLC) of 65.4 µM. The TGI (HOP-62 NSCLC) was 52.6 µM, the TGI (SK-OV-3 ovarian) was 77.2 µM and the TGI (DLD-1 colon) was 78.4 µM. It also gave a TGI (U251 CNS) of 33.6 µM, a TGI (OVCAR-8 ovarian) greater than 100 µM and a TGI (HT29 colon) of 36.3 µM. The TGI (SNB-19 CNS) was greater than 100 µM, the TGI (NCI-H460 lung) was 43 µM and the TGI (MALME-3M melanoma) was 72 µM. The TGI (SF-295 CNS) was 63.2 µM, the TGI (UO-31 renal) was 61.1 µM and the TGI (SN12C renal) was 77.1 µM. For the same compound, the TGI (TK-10 renal) was greater than 100 µM, the TGI (M19-MEL melanoma) was 66.1 µM and the TGI (SW-620 colon) was greater than 100 µM. It also gave a TGI (SK-MEL-5 melanoma) of 37.7 µM, a TGI (ACHN renal) of 58.6 µM and a TGI (HCT-116 colon) of 31 µM. For the same compound, the TGI (COLO 205 colon) was 36.8 µM, the TGI (CAKI-1 renal) was 63.2 µM and the TGI (SNB-78 CNS) was 62.5 µM. For the same compound, the TGI (HCT-15 colon) was 83.3 µM, the TGI (NCI-H23 lung) was 66.6 µM and the TGI (HOP-92 NSCLC) was 29.3 µM. It also gave a TGI (DMS 114 small cell lung) of 46.2 µM, a TGI (SF-539 CNS) of 59 µM and a TGI (KM20L2 colon) of 34.1 µM. It also gave a TGI (SF-268 CNS) of 83.3 µM, a TGI (SNB-75 CNS) of 13.7 µM and a TGI (LXFL 529 NSCLC) of 76.7 µM. It also gave a TGI (LOX IMVI melanoma) of 30.7 µM, a TGI (NCI-H522 lung) of 46.5 µM and a TGI (SK-MEL-2 melanoma) of 39.4 µM. The TGI (SK-MEL-28 melanoma) was 68.4 µM, the TGI (HOP-18 NSCLC) was 44.2 µM and the TGI (K-562 leukemia) was 73.5 µM. It also gave a TGI (NCI-H226 lung) of 47.2 µM, a TGI (MOLT-4 leukemia) of 71.7 µM and a TGI (UACC-62 melanoma) of 61.6 µM. The TGI (IGROV1 ovarian) was greater than 100 µM, the TGI (RXF-631 renal) was 49.2 µM and the TGI (RPMI-8226 leukemia) was 46.3 µM. For the same compound, the TGI (HL-60(TB) leukemia) was 37.5 µM, the TGI (OVCAR-3 ovarian) was 64.6 µM and the TGI (DMS 273 small cell lung) was 97.3 µM. It also gave a TGI (CCRF-CEM leukemia) of 48.6 µM.
`CC(=O)C1=C(C)NC2C=CC=CN12` (stereo unspecified) was tested, and the TGI (A498 renal) was greater than 100 µM, the TGI (M14 melanoma) was greater than 100 µM and the TGI (UACC-257 melanoma) was greater than 100 µM. It also gave a TGI (EKVX NSCLC) greater than 100 µM, a TGI (HOP-62 NSCLC) greater than 100 µM and a TGI (HCC-2998 colon) greater than 100 µM. It also gave a TGI (SK-OV-3 ovarian) greater than 100 µM, a TGI (A549 NSCLC) greater than 100 µM and a TGI (DLD-1 colon) greater than 100 µM. It also gave a TGI (U251 CNS) greater than 100 µM, a TGI (OVCAR-5 ovarian) greater than 100 µM and a TGI (OVCAR-8 ovarian) greater than 100 µM. It also gave a TGI (HT29 colon) greater than 100 µM, a TGI (SNB-19 CNS) greater than 100 µM and a TGI (NCI-H460 lung) greater than 100 µM. It also gave a TGI (MALME-3M melanoma) greater than 100 µM, a TGI (SF-295 CNS) greater than 100 µM and a TGI (UO-31 renal) greater than 100 µM. The TGI (SN12C renal) was greater than 100 µM, the TGI (TK-10 renal) was greater than 100 µM and the TGI (M19-MEL melanoma) was greater than 100 µM. The TGI (RXF 393 renal) was greater than 100 µM, the TGI (SW-620 colon) was greater than 100 µM and the TGI (SK-MEL-5 melanoma) was greater than 100 µM. For the same compound, the TGI (ACHN renal) was greater than 100 µM, the TGI (HCT-116 colon) was greater than 100 µM and the TGI (COLO 205 colon) was greater than 100 µM. For the same compound, the TGI (CAKI-1 renal) was greater than 100 µM, the TGI (SNB-78 CNS) was greater than 100 µM and the TGI (HCT-15 colon) was greater than 100 µM. It also gave a TGI (NCI-H23 lung) greater than 100 µM, a TGI (XF 498 CNS) greater than 100 µM and a TGI (HOP-92 NSCLC) greater than 100 µM. The TGI (DMS 114 small cell lung) was greater than 100 µM, the TGI (SF-539 CNS) was greater than 100 µM and the TGI (KM20L2 colon) was greater than 100 µM. It also gave a TGI (SF-268 CNS) greater than 100 µM, a TGI (786-0 renal) greater than 100 µM and a TGI (SNB-75 CNS) greater than 100 µM. It also gave a TGI (LOX IMVI melanoma) greater than 100 µM, a TGI (NCI-H522 lung) greater than 100 µM and a TGI (SK-MEL-2 melanoma) greater than 100 µM. For the same compound, the TGI (SK-MEL-28 melanoma) was greater than 100 µM, the TGI (HOP-18 NSCLC) was greater than 100 µM and the TGI (K-562 leukemia) was greater than 100 µM. For the same compound, the TGI (SR leukemia) was greater than 100 µM, the TGI (NCI-H226 lung) was greater than 100 µM and the TGI (MOLT-4 leukemia) was greater than 100 µM. The TGI (UACC-62 melanoma) was greater than 100 µM, the TGI (IGROV1 ovarian) was greater than 100 µM and the TGI (KM12 colon) was greater than 100 µM. It also gave a TGI (RPMI-8226 leukemia) greater than 100 µM, a TGI (OVCAR-4 ovarian) greater than 100 µM and a TGI (HL-60(TB) leukemia) greater than 100 µM. It also gave a TGI (OVCAR-3 ovarian) greater than 100 µM, a TGI (DMS 273 small cell lung) greater than 100 µM and a TGI (CCRF-CEM leukemia) greater than 100 µM.
